Assay [1] is described as follows: Inhibition of Mycobacterium tuberculosis Uracil-DNA glycosylase using 5' 32P end-labelled uracil DNA containing oligomer (5'-ctcaagtgUaggcatgcttttgcatgcctgcacttga-3') as substrate preincubated with enzyme for 15 mins followed by incubation on ice for 5 mins and incubation at room temperature for 5 mins and later incubated with substrate for 15 mins by radioactivity based assay.

Assay [2] in a line: Inhibition of Mycobacterium tuberculosis Uracil-DNA glycosylase using 5'-FAM-CUUUUUGAGCTTTTGCTCAAAAAG-3'-BHQ-1 as substrate measured every 2 mins for 40 mins by fluorescence based analysis.

For orientation: IC50 means the point on the concentration scale where inhibition reaches its midpoint.

As to `O=C(O)c1c[nH]c(=O)[nH]c1=O`, the IC50 in assay [1] was found to be 2.4 mM; in assay [2] it was 15.9 mM.

For `O=C(O)c1[nH]c(=O)[nH]c(=O)c1F`, the IC50 in assay [1] is 2.8 mM; in assay [2], 2.93 mM.

As for `COc1cc2nc(O)nc(O)c2cc1OC`, 0.93 mM corresponded to half-maximal inhibition in assay [2] (IC50). Consider `Oc1ncc(O)c(O)n1`, for which the IC50 worked out at 1.2 mM in assay [1] and 2.8 mM in assay [2]. Take `O=C1NC(=O)C(=Cc2ccc([N+](=O)[O-])cc2)C(=O)N1`: in assay [1], the IC50 was found to be 1 mM. For `COC(=O)COc1ccc(C=C2C(=O)NC(=O)NC2=O)cc1`, the IC50 in assay [1] stood at 0.5 mM; in assay [2], 0.33 mM. Regarding `COC(=O)CCCOc1ccc(C=C2C(=O)NC(=O)NC2=O)cc1`, the half-inhibitory concentration (IC50) in assay [1] came to 3 mM. Still for that read-out and setting: next, `COc1cccc(C=C2C(=O)NC(=O)NC2=O)c1`: 1.9 mM.

As to `COC(=O)c1ccc(OCCOc2ccc(C=C3C(=O)NC(=O)NC3=O)cc2)cc1`, the IC50 in assay [1] turned out to be 1.2 mM. The same measure, in the same setting: the result for `COC(=O)c1cccc(OCCOc2ccc(C=C3C(=O)NC(=O)NC3=O)cc2)c1` reads 2.4 mM; that for `COC(=O)c1ccccc1OCCCOc1ccc(C=C2C(=O)NC(=O)NC2=O)cc1`, 1.6 mM. In the case of `O=C1NC(=O)C(=Cc2ccc(OCCOc3ccccc3C(=O)O)cc2)C(=O)N1`, the IC50 in assay [1] came to 1.9 mM; in assay [2] it was 1.1 mM.

As for `O=C1NC(=O)C(=Cc2ccc(OCCCOc3ccccc3C(=O)O)cc2)C(=O)N1`, the IC50 in assay [1] was determined as 0.7 mM. The same measure, in the same setting: the result for `COC(=O)c1ccccc1OCCOc1ccc(C=C2C(=O)NC(=O)NC2=O)cc1` reads 0.1 mM. The molecule `COC(=O)COc1ccccc1C=C1C(=O)NC(=O)NC1=O` displayed an IC50 in assay [2] of 5.55 mM. For the molecule `COC(=O)COc1cccc(C=C2C(=O)NC(=O)NC2=O)c1`, the IC50 in assay [2] is 10.4 mM. For the molecule `COC(=O)c1ccc(OCCOc2ccccc2C=C2C(=O)NC(=O)NC2=O)cc1`, the IC50 in assay [1] turned out to be 3.5 mM.

Regarding `COC(=O)CCCOc1ccccc1C=C1C(=O)NC(=O)NC1=O`, the IC50 in assay [2] was determined as 0.99 mM. Take `O=Cc1cc(=O)[nH]c(=O)[nH]1`: the IC50 in assay [1] was 1 mM; in assay [2], 6.51 mM. Turning to `COC(=O)CCCOc1cccc(C=C2C(=O)NC(=O)NC2=O)c1`, in assay [2], inhibition was half-maximal at 4.2 mM (IC50). With `COC(=O)c1ccccc1OCCOc1ccccc1C=C1C(=O)NC(=O)NC1=O`, 1.06 mM corresponded to half-maximal inhibition in assay [2] (IC50). Turning to `O=C1NC(=O)C(=Cc2ccc(Br)cc2)C(=O)N1`, in assay [1], the IC50 amounted to 1.5 mM. In the case of `O=C1CC(=O)NC(=O)N1` [BARBITURIC ACID], the IC50 in assay [1] amounted to 1 mM; in assay [2], 7.29 mM. For the molecule `Cc1cc2nc3[nH]c(=O)[nH]c(=O)c3nc2cc1C` [LUMICHROME], in assay [1], the IC50 came out at 1.5 mM.

On to `O=C(O)c1cc(=O)[nH]c(=O)[nH]1` [OROTIC ACID], for which the IC50 in assay [1] was found to be 2.3 mM; in assay [2], 14.2 mM. For `O=C1CSC(=O)N1` [THIAZOLIDINEDIONE], the IC50 in assay [2] came to 17.3 mM. With `O=c1cc[nH]c(=O)[nH]1` [URACIL], the IC50 in assay [1] was found to be 0.8 mM; in assay [2], 2.05 mM. For `Oc1nc(O)c2nc(O)[nH]c2n1` [URIC ACID], the IC50 in assay [1] stood at 1.7 mM; in assay [2], 16.4 mM.
